Test results: ChEMBL document CHEMBL2311450, “Synthesis and antibacterial evaluation of novel 11,4″-disubstituted azithromycin analogs with greatly improved activity against erythromycin-resistant bacteria” (2013)
Values after ≈ are worked out from the molar mass of the structure shown.

Experiments:
Staphylococcus aureus [1] = experiment: Antibacterial activity against penicillin-resistant Staphylococcus aureus clinical isolate by broth microdilution method; assay type: functional
Salmonella typhimurium [2] = experiment: Antibacterial activity against Salmonella typhimurium TA98 by broth microdilution method; assay type: functional, Salmonella enterica subsp. enterica serovar Typhimurium; conditions: Salmonella enterica
Streptococcus pyogenes [3] = experiment: Antibacterial activity against erythromycin-susceptible Streptococcus pyogenes by broth microdilution method; assay type: functional
Salmonella typhimurium [4] = experiment: Antibacterial activity against Salmonella typhimurium TA102 by broth microdilution method; assay type: functional, Salmonella enterica subsp. enterica serovar Typhimurium; conditions: Salmonella enterica
Streptococcus pyogenes [5] = experiment: Antibacterial activity against erythromycin-resistant Streptococcus pyogenes RE clinical isolate by broth microdilution method; assay type: functional
Staphylococcus aureus [6] = experiment: Antibacterial activity against erythromycin-susceptible Staphylococcus aureus ATCC 25923 by broth microdilution method; assay type: functional
Streptococcus pneumoniae [7] = experiment: Antibacterial activity against erythromycin-resistant Streptococcus pneumoniae AB11 expressing erm and mef genes by broth microdilution method; assay type: functional
Staphylococcus aureus [8] = experiment: Antibacterial activity against methicillin-susceptible Staphylococcus aureus ATCC 29213 by broth microdilution method; assay type: functional
Streptococcus pneumoniae [9] = experiment: Antibacterial activity against erythromycin-susceptible Streptococcus pneumoniae ATCC 49619 by broth microdilution method; assay type: functional
Streptococcus pneumoniae [10] = experiment: Antibacterial activity against erythromycin-resistant Streptococcus pneumoniae B1 expressing erm gene by broth microdilution method; assay type: functional
Streptococcus pneumoniae [11] = experiment: Antibacterial activity against erythromycin-resistant Streptococcus pneumoniae A22072 expressing mef gene by broth microdilution method; assay type: functional

Compound | MIC (Staphylococcus aureus [1]) [mg/L] | MIC (Salmonella typhimurium [2]) [mg/L] | MIC (Streptococcus pyogenes [3]) [mg/L] | MIC (Salmonella typhimurium [4]) [mg/L] | MIC (Streptococcus pyogenes [5]) [mg/L] | MIC (Staphylococcus aureus [6]) [mg/L] | MIC (Streptococcus pneumoniae [7]) [mg/L] | MIC (Staphylococcus aureus [8]) [mg/L] | MIC (Streptococcus pneumoniae [9]) [mg/L] | MIC (Streptococcus pneumoniae [10]) [mg/L] | MIC (Streptococcus pneumoniae [11]) [mg/L]
CC[C@H]1OC(=O)[C@H](C)[C@@H](O[C@H]2C[C@@](C)(OC)[C@@H](OC(=O)NCCNC(=O)c3ccc(OC)c(OC)c3)[C@H](C)O2)[C@H](C)[C@@H](O[C@@H]2O[C@H](C)C[C@H](N(C)C)[C@H]2O)[C@](C)(O)C[C@@H](C)CN(C)[C@H](C)[C@@H](OC(=O)NCCc2ccccc2)[C@]1(C)O | 4 (≈ 3.49 µM) | 8 (≈ 6.98 µM) | 32 (≈ 27.9 µM) | 2 (≈ 1.74 µM) | 64 (≈ 55.8 µM) | 1 (≈ 0.872 µM) | 16 (≈ 14 µM) | 4 (≈ 3.49 µM) | 0.06 (≈ 0.0523 µM) | 4 (≈ 3.49 µM) | 0.5 (≈ 0.436 µM)
CC[C@H]1OC(=O)[C@H](C)[C@@H](O[C@H]2C[C@@](C)(OC)[C@@H](OC(=O)NCCNC(=O)c3cc([N+](=O)[O-])cc([N+](=O)[O-])c3)[C@H](C)O2)[C@H](C)[C@@H](O[C@@H]2O[C@H](C)C[C@H](N(C)C)[C@H]2O)[C@](C)(O)C[C@@H](C)CN(C)[C@H](C)[C@@H](OC(=O)NCCc2ccccc2)[C@]1(C)O | 4 (≈ 3.4 µM) | 0.5 (≈ 0.425 µM) | 8 (≈ 6.8 µM) | 2 (≈ 1.7 µM) | 64 (≈ 54.4 µM) | 0.12 (≈ 0.102 µM) | 2 (≈ 1.7 µM) | 4 (≈ 3.4 µM) | 0.06 (≈ 0.051 µM) | 0.25 (≈ 0.213 µM) | 0.06 (≈ 0.051 µM)
CC[C@H]1OC(=O)[C@H](C)[C@@H](O[C@H]2C[C@@](C)(OC)[C@@H](OC(=O)NCCCCNC(=O)c3ccc(OC)cc3)[C@H](C)O2)[C@H](C)[C@@H](O[C@@H]2O[C@H](C)C[C@H](N(C)C)[C@H]2O)[C@](C)(O)C[C@@H](C)CN(C)[C@H](C)[C@@H](OC(=O)NCc2ccccc2)[C@]1(C)O | 2 (≈ 1.77 µM) | 2 (≈ 1.77 µM) | 8 (≈ 7.08 µM) | 0.12 (≈ 0.106 µM) | 64 (≈ 56.6 µM) | 0.5 (≈ 0.442 µM) | 8 (≈ 7.08 µM) | 4 (≈ 3.54 µM) | 0.03 (≈ 0.0265 µM) | 2 (≈ 1.77 µM) | 0.12 (≈ 0.106 µM)
CC[C@H]1OC(=O)[C@H](C)[C@@H](O[C@H]2C[C@@](C)(OC)[C@@H](OC(=O)NCCCCNC(=O)c3ccc(OC)cc3)[C@H](C)O2)[C@H](C)[C@@H](O[C@@H]2O[C@H](C)C[C@H](N(C)C)[C@H]2O)[C@](C)(O)C[C@@H](C)CN(C)[C@H](C)[C@@H](OC(=O)NCc2ccc(OC)cc2)[C@]1(C)O | 4 (≈ 3.45 µM) | 16 (≈ 13.8 µM) | 32 (≈ 27.6 µM) | 2 (≈ 1.72 µM) | 64 (≈ 55.2 µM) | 1 (≈ 0.862 µM) | 16 (≈ 13.8 µM) | 4 (≈ 3.45 µM) | 0.12 (≈ 0.103 µM) | 2 (≈ 1.72 µM) | 0.5 (≈ 0.431 µM)
CC[C@H]1OC(=O)[C@H](C)[C@@H](O[C@H]2C[C@@](C)(OC)[C@@H](OC(=O)NCCCCNC(=O)c3ccc(OC)cc3)[C@H](C)O2)[C@H](C)[C@@H](O[C@@H]2O[C@H](C)C[C@H](N(C)C)[C@H]2O)[C@](C)(O)C[C@@H](C)CN(C)[C@H](C)[C@@H](OC(=O)NCc2ccc(C)c(C)c2)[C@]1(C)O | 4 (≈ 3.45 µM) | 8 (≈ 6.91 µM) | 16 (≈ 13.8 µM) | 1 (≈ 0.863 µM) | 64 (≈ 55.2 µM) | 1 (≈ 0.863 µM) | 16 (≈ 13.8 µM) | 8 (≈ 6.91 µM) | 0.12 (≈ 0.104 µM) | 4 (≈ 3.45 µM) | 0.5 (≈ 0.432 µM)
CC[C@H]1OC(=O)[C@H](C)[C@@H](O[C@H]2C[C@@](C)(OC)[C@@H](OC(=O)NCCCCNC(=O)c3ccc(OC)cc3)[C@H](C)O2)[C@H](C)[C@@H](O[C@@H]2O[C@H](C)C[C@H](N(C)C)[C@H]2O)[C@](C)(O)C[C@@H](C)CN(C)[C@H](C)[C@@H](OC(=O)NCc2ccc(F)cc2)[C@]1(C)O | 4 (≈ 3.48 µM) | 8 (≈ 6.97 µM) | 32 (≈ 27.9 µM) | 1 (≈ 0.871 µM) | 64 (≈ 55.7 µM) | 1 (≈ 0.871 µM) | 16 (≈ 13.9 µM) | 8 (≈ 6.97 µM) | 0.06 (≈ 0.0522 µM) | 4 (≈ 3.48 µM) | 0.25 (≈ 0.218 µM)
CC[C@H]1OC(=O)[C@H](C)[C@@H](O[C@H]2C[C@@](C)(OC)[C@@H](OC(=O)NCCCCNC(=O)c3ccc(OC)cc3)[C@H](C)O2)[C@H](C)[C@@H](O[C@@H]2O[C@H](C)C[C@H](N(C)C)[C@H]2O)[C@](C)(O)C[C@@H](C)CN(C)[C@H](C)[C@@H](OC(=O)NCc2ccc(F)c(F)c2)[C@]1(C)O | 4 (≈ 3.43 µM) | 4 (≈ 3.43 µM) | 8 (≈ 6.86 µM) | 32 (≈ 27.4 µM) | 64 (≈ 54.9 µM) | 0.5 (≈ 0.429 µM) | 16 (≈ 13.7 µM) | 4 (≈ 3.43 µM) | 0.03 (≈ 0.0257 µM) | 4 (≈ 3.43 µM) | 0.12 (≈ 0.103 µM)
